Data: patent US20250134820A1, “PHARMACEUTICAL COMPOSITIONS” (Novartis AG, priority 2021, published 2025)
Structures can show the parent of a compound that is named as a salt.

How the values were obtained:
[1] = pHmax of the fumarate salt; format: physicochemical; conditions: estimated
Description: The pHmax of the fumarate salt is estimated to be about 4.5. An increase in pH above 4.5 may potentially increase the risk of disproportionation.

[2] = Disproportionation (XRPD) of ASAP batches; format: physicochemical
Procedure: The compatibility of Compound A fumarate was further evaluated in 21 days ASAP study involving three different formulation principles, wet granulation, dry blending and roller compaction. The drug load selected for study was 5% w/w, translating to 6.40% w/w of fumarate salt. The XRPD of the samples were evaluated at certain time intervals according to the Safety Protocol in Table 5.
The analysis was done for the samples stored at 21 days.

[3] = Hygroscopicity, water uptake by DVS; format: physicochemical
Procedure: (§1) Solubility of the fumarate in FaSSIF is 0.09 mg/mL and 0.21 mg/mL in FeSSIF. […] The maximum water uptake by DVS is less than 0.1% up to 95% RH at 25° C.

[4] = Solubility of Compound A fumarate at 25° C.; format: physicochemical; conditions: for solubility at 24 h: thermodynamic from solid
Procedure: as §1

[5] = ADME/PK profile across tested species; format: in vivo
Description: (§2) GastroPlus modeling predicted dissolution and/or solubility limitations of the free form of Compound A at high doses.

[6] = Solubility and dissolution rate of the free form in biorelevant media; format: physicochemical
Description: as §2

Q: For `FC(F)OC1=CC(C(F)(F)F)=CN2C[C@@]3(CCC(F)(F)c4c3ccnc4Cl)N=C12` [Compound A fumarate, (S)-1′-chloro-8-(difluoromethoxy)-8′,8′-difluoro-6-(trifluoromethyl)-7′,8′-dihydro-3H,6′H-spiro[imidazo[1,2-a]pyridine-2,5′-isoquinoline]], which pHmax [1] is on record?
A: Its pHmax is “about 4.5”.

Q: What about the “Disproportionation result (XRPD)” value ([2]; 50° C./75% RH - 21 days) of the same compound?
A: Its value is “No free form peak”.

Q: And the “Disproportionation result (XRPD)” value ([2]; 60° C./80% RH - 21 days)?
A: The value was “No free form peak”.

Q: And the “Disproportionation result (XRPD)” value ([2]; 70° C./41% RH - 21 days)?
A: The value was “No free form peak”.

Q: What about the “Disproportionation result (XRPD)” value ([2]; 80° C./50% RH - 21 days) of the same compound?
A: The value was “No free form peak”.

Q: And the Hygroscopicity [3]?
A: Its Hygroscopicity is “non hygroscopic”.

Q: What about the “Maximum water uptake by DVS” value ([3]; up to 95% RH at 25° C.) of the same compound?
A: Its value is “less than 0.1%”.

Q: And the solubility at 24 h ([4]; 25 °C, aqueous buffer, pH 1.2 to pH 4.7)?
A: Its solubility at 24 h is ≥ 2000 µg/mL.

Q: And the solubility at 24 h ([4]; acetate buffer pH 4.7, aqueous buffer, 25° C., pH 4.7 buffer (acetate))?
A: The solubility at 24 h was > 2000 µg/mL.

Q: And the solubility at 24 h ([4]; hydrochloric acid buffer pH 1.2, simulated gastric fluid, 25° C., pH 1.2 buffer (hydrochloric acid))?
A: Its solubility at 24 h is > 2000 µg/mL.

Q: And the solubility at 24 h ([4]; hydrochloric acid buffer pH 2, simulated gastric fluid, 25° C., pH 2 buffer (hydrochloric acid))?
A: The solubility at 24 h was > 2000 µg/mL.

Q: And the solubility at 24 h ([4]; organic solvent or mixture, 25° C., Acetonitrile)?
A: Its solubility at 24 h is > 100000 µg/mL.

Q: What about the solubility at 24 h ([4]; organic solvent or mixture, 25° C., Ethanol) of the same compound?
A: Its solubility at 24 h is > 100000 µg/mL.

Q: And the “Solid residues obtained after 24h equilibration” value ([4]; pH values of 5.4 and above)?
A: The value was “correspond to the free form”.

Q: What about the solubility at 24 h ([4]; phosphate buffer pH 6.8, aqueous buffer, 25° C., pH 6.8 buffer (phosphate)) of the same compound?
A: The solubility at 24 h was 30 µg/mL.

Q: And the solubility at 24 h ([4]; 25° C., Water)?
A: Its solubility at 24 h is > 2000 µg/mL.

Q: What about the solubility at 24 h ([4]; 25° C., pH 2.0 (SGF), simulated gastric fluid) of the same compound?
A: The solubility at 24 h was > 2000 µg/mL.

Q: And the solubility at 24 h ([4]; 25° C., pH 5.8 (FeSSIF), fed state simulating intestinal fluid)?
A: Its solubility at 24 h is 210 µg/mL.

Q: What about the solubility at 24 h ([4]; 25° C., pH 6.5 (FaSSIF), fasted state simulating intestinal fluid) of the same compound?
A: Its solubility at 24 h is 90 µg/mL.

Q: Which results are given for `FC(F)OC1=CC(C(F)(F)F)=CN2C[C@@]3(CCC(F)(F)c4c3ccnc4Cl)N=C12` [Compound A, (S)-1′-chloro-8-(difluoromethoxy)-8′,8′-difluoro-6-(trifluoromethyl)-7′,8′-dihydro-3H,6′H-spiro[imidazo[1,2-a]pyridine-2,5′-isoquinoline]]?
A: Clearance [5]: low to very low; Oral bioavailability [5]: good

Q: Which Solubility [6] does the source give for `FC(F)OC1=CC(C(F)(F)F)=CN2C[C@@]3(CCC(F)(F)c4c3ccnc4Cl)N=C12` [free form of Compound A, (S)-1′-chloro-8-(difluoromethoxy)-8′,8′-difluoro-6-(trifluoromethyl)-7′,8′-dihydro-3H,6′H-spiro[imidazo[1,2-a]pyridine-2,5′-isoquinoline]] here?
A: The Solubility was “poor”.

Q: What about the Dissolution rate ([6]; in biorelevant media) of the same compound?
A: The Dissolution rate was “slow”.

Q: What about the Clearance [5] of the same compound?
A: The Clearance was “low”.

Q: And the Oral bioavailability [5]?
A: Its Oral bioavailability is “moderate to high”.
